Measured values reported in PMC6348381, “Discovery of an MLLT1/3 YEATS Domain Chemical Probe” (Angewandte Chemie (International Ed. in English), 2018).

Experiments:
Format in all cases: binding
TRIM28 = target: T1, TRIM28 (Homo sapiens, UniProt Q13263); assay: Thermal shift assay, TRIM28
T1 construct: Bromosporine with recombinant human bromodomain proteins; made in house
Procedure: (§1) II.VII Thermal Shift Assay[6]
(§2) Thermal melting experiments were carried out using an Mx3005p Real Time PCR machine (Stratagene). Proteins were buffered in 10 mM HEPES pH 7.5, 500 mM NaCl and assayed in a 96-well plate at a final concentration of 2 μM in 20 μL volume. Compounds were added at a final concentration of 50 μM. SYPRO Orange (Molecular Probes) was added as a fluorescence probe at a dilution of 1:1000. Excitation and emission filters for the SYPRO-Orange dye were set to 465 nm and 590 nm, respectively. The temperature was raised with a step of 3 °C per minute from 25 °C to 96 °C and fluorescence readings were taken at each interval. The unfolding curves were fitted using the Boltzmann equation to determine the middle point of the transition.

BRD1 = target: T2, BRD1 (Homo sapiens, UniProt O95696); assay: Thermal shift assay, BRD1
T2 construct: purchased in-house (SGC bromodomain thermal shift / AlphaScreen panel)
T2 sequence (O95696 1-1058): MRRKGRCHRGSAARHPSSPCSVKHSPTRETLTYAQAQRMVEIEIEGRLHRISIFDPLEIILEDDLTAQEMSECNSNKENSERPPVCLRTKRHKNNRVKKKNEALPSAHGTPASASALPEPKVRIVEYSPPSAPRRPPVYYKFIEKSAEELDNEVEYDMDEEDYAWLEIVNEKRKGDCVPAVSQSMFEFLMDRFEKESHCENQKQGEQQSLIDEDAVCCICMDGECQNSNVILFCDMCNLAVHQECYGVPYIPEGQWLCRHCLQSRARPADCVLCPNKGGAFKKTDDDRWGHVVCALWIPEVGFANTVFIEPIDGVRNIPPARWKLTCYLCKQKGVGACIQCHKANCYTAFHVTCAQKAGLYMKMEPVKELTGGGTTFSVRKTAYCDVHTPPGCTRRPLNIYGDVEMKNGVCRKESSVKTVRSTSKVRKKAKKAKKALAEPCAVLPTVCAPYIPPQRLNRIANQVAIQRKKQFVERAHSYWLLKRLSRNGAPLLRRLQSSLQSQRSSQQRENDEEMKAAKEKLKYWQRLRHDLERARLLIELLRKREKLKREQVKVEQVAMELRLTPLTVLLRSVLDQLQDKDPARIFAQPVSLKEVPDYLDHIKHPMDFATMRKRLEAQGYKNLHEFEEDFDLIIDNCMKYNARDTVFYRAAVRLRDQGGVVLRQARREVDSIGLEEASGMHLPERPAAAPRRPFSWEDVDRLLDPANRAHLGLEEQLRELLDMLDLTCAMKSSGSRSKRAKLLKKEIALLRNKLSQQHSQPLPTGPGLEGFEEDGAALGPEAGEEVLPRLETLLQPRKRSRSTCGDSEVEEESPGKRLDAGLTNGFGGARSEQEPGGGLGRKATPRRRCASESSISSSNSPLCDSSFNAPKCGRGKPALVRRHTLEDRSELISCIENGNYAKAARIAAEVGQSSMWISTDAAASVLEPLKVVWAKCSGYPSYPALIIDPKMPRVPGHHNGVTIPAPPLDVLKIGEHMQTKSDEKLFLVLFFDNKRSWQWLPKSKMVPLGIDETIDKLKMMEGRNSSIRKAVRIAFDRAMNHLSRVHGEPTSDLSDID
Procedure: as §1, §2

BRPF1A = target: T3, BRPF1A (Homo sapiens, UniProt P55201); assay: Thermal shift assay, BRPF1A
T3 construct: purchased in-house (SGC bromodomain thermal shift / AlphaScreen panel)
T3 sequence (P55201 1-1220 isoform P55201-2): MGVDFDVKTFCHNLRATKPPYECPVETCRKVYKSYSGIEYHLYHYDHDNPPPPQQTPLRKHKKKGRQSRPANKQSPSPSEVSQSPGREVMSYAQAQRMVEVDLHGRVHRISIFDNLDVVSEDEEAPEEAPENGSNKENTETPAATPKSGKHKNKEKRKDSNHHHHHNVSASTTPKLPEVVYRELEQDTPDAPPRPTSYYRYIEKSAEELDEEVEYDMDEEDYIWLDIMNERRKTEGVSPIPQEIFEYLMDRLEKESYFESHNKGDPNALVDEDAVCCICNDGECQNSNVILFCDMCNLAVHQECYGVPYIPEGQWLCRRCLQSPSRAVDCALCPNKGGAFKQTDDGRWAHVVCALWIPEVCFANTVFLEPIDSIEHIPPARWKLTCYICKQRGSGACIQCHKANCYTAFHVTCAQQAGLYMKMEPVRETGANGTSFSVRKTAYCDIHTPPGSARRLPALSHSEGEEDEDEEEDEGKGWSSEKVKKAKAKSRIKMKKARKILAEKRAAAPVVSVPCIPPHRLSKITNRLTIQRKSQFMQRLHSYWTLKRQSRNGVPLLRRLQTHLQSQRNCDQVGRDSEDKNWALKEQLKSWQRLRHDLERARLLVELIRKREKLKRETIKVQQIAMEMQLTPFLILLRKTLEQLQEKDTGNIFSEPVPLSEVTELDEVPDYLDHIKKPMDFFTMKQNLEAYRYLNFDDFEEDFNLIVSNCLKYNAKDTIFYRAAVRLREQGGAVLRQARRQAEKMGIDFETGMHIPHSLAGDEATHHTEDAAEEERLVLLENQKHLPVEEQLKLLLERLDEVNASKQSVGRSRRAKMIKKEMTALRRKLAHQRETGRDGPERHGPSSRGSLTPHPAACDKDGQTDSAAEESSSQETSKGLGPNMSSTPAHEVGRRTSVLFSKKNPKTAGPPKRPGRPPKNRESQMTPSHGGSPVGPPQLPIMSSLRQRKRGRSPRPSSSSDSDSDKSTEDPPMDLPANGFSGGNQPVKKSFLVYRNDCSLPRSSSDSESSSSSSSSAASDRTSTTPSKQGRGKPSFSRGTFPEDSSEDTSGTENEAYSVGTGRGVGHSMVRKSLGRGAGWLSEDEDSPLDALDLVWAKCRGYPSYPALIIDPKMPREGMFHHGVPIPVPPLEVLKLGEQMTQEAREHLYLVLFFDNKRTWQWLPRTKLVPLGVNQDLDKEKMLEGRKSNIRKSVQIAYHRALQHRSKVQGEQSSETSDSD
Procedure: as §1, §2

MLL = target: T4, MLL (Homo sapiens, UniProt Q03164); assay: Thermal shift assay, MLL
T4 construct: purchased in-house (SGC bromodomain thermal shift / AlphaScreen panel)
T4 sequence (Q03164 whole entry): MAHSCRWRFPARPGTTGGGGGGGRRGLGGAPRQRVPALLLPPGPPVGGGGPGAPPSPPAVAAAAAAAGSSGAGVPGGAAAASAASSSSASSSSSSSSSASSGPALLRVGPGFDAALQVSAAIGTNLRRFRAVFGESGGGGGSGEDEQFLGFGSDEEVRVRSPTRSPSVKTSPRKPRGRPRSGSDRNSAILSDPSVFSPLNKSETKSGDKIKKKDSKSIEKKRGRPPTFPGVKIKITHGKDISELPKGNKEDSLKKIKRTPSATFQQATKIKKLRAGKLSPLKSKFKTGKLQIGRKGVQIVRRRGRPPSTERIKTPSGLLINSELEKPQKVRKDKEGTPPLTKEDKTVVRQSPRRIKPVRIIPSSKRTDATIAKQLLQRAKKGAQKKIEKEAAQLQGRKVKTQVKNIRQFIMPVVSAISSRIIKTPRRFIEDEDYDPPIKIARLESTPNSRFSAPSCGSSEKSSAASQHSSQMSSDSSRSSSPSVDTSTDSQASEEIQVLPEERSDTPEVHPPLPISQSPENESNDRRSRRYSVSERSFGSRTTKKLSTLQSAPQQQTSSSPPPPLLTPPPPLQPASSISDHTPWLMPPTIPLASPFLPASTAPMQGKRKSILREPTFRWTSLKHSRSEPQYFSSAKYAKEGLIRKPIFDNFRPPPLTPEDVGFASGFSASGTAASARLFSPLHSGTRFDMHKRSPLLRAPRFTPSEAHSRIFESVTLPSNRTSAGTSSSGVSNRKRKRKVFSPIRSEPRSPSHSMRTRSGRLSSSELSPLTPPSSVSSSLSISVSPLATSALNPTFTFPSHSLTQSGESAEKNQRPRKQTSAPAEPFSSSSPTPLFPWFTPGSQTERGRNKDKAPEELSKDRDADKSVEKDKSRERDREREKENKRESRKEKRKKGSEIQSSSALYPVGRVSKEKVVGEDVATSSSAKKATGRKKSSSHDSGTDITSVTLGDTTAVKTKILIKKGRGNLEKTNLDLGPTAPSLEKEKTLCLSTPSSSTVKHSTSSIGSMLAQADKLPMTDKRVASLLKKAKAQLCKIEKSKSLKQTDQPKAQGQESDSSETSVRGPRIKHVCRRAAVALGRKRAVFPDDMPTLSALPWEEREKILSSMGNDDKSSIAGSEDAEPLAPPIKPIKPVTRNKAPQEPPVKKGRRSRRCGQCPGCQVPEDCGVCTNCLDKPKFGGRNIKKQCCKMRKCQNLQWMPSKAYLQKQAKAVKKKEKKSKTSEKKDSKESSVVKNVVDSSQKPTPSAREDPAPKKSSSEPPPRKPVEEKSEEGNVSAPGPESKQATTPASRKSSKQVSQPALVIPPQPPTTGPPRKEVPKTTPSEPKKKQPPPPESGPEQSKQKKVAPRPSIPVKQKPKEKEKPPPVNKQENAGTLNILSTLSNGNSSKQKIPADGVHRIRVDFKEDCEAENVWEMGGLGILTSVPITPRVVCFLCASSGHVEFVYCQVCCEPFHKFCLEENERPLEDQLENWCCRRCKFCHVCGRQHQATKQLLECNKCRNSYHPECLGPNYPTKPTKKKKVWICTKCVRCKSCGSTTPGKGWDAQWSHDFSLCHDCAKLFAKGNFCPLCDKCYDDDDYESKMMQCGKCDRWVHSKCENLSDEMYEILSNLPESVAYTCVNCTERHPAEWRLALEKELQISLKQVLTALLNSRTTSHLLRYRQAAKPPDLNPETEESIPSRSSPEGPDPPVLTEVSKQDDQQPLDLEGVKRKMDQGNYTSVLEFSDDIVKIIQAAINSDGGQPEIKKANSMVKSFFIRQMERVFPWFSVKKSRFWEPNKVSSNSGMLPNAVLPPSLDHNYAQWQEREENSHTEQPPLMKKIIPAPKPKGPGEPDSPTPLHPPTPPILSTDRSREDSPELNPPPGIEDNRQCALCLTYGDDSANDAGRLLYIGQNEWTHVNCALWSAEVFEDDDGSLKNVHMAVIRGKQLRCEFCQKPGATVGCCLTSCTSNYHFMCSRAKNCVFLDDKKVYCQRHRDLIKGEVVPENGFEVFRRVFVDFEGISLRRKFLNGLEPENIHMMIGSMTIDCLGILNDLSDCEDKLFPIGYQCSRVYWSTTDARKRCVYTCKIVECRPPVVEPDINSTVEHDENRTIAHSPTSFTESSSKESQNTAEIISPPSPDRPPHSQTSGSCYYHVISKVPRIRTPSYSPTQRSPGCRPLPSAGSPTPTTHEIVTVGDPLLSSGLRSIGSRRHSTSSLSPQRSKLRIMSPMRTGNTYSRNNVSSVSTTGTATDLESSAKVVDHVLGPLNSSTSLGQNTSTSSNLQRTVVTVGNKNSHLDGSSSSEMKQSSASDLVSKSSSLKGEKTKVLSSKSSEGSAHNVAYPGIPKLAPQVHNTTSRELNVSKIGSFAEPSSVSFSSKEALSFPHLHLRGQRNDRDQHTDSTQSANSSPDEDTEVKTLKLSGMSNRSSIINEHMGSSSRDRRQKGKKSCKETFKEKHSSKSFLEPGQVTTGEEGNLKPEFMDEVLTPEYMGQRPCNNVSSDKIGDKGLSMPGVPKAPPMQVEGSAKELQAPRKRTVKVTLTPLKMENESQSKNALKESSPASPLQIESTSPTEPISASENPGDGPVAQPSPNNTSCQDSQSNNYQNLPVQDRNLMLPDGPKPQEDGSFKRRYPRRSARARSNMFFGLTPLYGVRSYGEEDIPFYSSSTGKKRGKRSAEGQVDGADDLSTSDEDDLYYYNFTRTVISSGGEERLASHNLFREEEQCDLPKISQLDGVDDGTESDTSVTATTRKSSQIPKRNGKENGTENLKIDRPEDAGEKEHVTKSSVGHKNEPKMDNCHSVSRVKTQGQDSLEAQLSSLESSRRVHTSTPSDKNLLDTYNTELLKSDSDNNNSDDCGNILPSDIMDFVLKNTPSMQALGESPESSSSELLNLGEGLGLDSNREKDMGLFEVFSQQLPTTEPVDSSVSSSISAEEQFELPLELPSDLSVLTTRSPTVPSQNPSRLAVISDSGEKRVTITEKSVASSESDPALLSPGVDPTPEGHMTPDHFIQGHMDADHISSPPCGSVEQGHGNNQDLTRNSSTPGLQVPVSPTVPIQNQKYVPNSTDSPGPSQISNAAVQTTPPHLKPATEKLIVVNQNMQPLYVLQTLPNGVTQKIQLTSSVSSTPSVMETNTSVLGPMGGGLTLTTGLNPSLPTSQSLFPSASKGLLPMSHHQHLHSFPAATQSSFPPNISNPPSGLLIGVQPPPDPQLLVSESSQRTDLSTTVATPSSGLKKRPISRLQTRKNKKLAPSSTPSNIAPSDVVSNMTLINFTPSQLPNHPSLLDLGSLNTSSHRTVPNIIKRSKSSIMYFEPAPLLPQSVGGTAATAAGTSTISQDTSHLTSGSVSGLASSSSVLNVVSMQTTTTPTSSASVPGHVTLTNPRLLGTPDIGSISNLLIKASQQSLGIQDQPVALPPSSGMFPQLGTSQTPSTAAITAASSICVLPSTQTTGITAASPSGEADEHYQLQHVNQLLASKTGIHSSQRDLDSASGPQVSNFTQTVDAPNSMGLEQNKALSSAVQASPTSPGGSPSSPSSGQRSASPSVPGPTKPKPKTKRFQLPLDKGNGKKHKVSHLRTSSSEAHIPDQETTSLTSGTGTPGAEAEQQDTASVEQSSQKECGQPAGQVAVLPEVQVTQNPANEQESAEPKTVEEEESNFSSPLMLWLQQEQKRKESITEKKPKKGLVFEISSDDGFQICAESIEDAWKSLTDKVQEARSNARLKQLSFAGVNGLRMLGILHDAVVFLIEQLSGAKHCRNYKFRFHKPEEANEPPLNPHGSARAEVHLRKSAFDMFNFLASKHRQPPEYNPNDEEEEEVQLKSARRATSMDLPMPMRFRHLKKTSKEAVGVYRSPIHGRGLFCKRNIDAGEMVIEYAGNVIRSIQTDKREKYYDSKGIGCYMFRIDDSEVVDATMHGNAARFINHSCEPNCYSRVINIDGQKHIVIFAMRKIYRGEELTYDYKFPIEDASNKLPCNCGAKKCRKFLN

CREBBP = target: T5, CREBBP (Homo sapiens, UniProt Q92793); assay: Thermal shift assay, CREBBP
T5 construct: purchased in-house (SGC bromodomain thermal shift / AlphaScreen panel)

T1 sequence (Q13263 695-799 limits assumed): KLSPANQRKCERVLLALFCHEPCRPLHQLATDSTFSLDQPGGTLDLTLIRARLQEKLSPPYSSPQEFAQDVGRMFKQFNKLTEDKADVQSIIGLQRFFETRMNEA

With `C[C@H]1CCCN1Cc1nc2cc(NC(=O)c3ccc4c(cnn4C)c3)ccc2[nH]1` [Compound 92] the “Thermal stabilisation, TRIM28” value (TRIM28; 50 μM compound) was -0.225, the “Thermal stabilisation, BRD1” value (BRD1; 50 μM compound) was 0.215 and the “Thermal stabilisation, BRPF1A” value (BRPF1A; 50 μM compound) was -1.305. The “Thermal stabilisation, MLL” value (MLL; 50 μM compound) was -1.31 and the “Thermal stabilisation, CREBBP” value (CREBBP; 50 μM compound) was -0.075.
`COC(=O)c1ccc(C(=O)Nc2ccc3[nH]c(CN4CCCCC4)nc3c2)cc1` [Compound 1] was tested, and the “Thermal stabilisation, TRIM28” value (TRIM28; 50 μM compound) was 0.02, the “Thermal stabilisation, BRD1” value (BRD1; 50 μM compound) was 0.2 and the “Thermal stabilisation, BRPF1A” value (BRPF1A; 50 μM compound) was -1.045. For the same molecule, the “Thermal stabilisation, MLL” value (MLL; 50 μM compound) was -0.18 and the “Thermal stabilisation, CREBBP” value (CREBBP; 50 μM compound) was 0.675.
With `CCOC(=O)Nc1cc(-c2ccc(C)c(NS(C)(=O)=O)c2)nn2c(C)nnc12` [Bromosporine, reference compound] the “Thermal stabilisation, TRIM28” value (TRIM28; 10 µM compound concentration) was 0.265, the “Thermal stabilisation, BRD1” value (BRD1; 10 µM compound concentration) was 2.055 and the “Thermal stabilisation, BRPF1A” value (BRPF1A; 10 µM compound concentration) was 0.145. For the same molecule, the “Thermal stabilisation, MLL” value (MLL; 10 µM compound concentration) was 0.75 and the “Thermal stabilisation, CREBBP” value (CREBBP; 10 µM compound concentration) was 3.31.
